Results reported in PMC4182091, “A Common Minimal Motif for the Ligands of HLA-B*27 Class I Molecules” (PLoS ONE, 2014).
Like-named read-outs stand apart in the source and are kept apart here. Ends that are not written are not given here.

Assays:
Format in all cases: cell-based
HLA-B*2706 = biological target: T1, HLA-B*2706 (Homo sapiens, UniProt P01889, A235G/D201E/E204Q/G107R/H137Y/K202T/N104T/N87E/Q56L/Q94K/R106L/R155S/R180L/S121N/S48T/Y33H/Y91C); assay: HLA/peptide complex stability assay, RMA-S cells transfected with HLA-B*2706; conditions: for fluorescence index, B*2706: peptide 200 µM
T1 construct: expressed in transfected cells; host or cells: RMA-S (TAP-deficient murine cell line)

HLA-B*2702 = HLA-B*2702 (Homo sapiens, UniProt P01889, D138H/D201E/E176V/E204Q/G107R/H137Y/K202T/L105A/N104I/N87E/Q56L/Q94K/R106L/R155S/R180L/S101N/S121N/S48T/Y140D/Y33H/Y91C); assay: HLA/peptide complex stability assay, RMA-S cells transfected with HLA-B*2702; conditions: for fluorescence index, B*2702: peptide 200 µM
HLA-B*2704 = HLA-B*2704 (Homo sapiens, UniProt P01889, A235G/D138H/D201E/E204Q/G107R/H137Y/K202T/N104T/N87E/Q56L/Q94K/R106L/R155S/R180L/S121N/S48T/Y140D/Y33H/Y91C); assay: HLA/peptide complex stability assay, RMA-S cells transfected with HLA-B*2704; conditions: for fluorescence index, B*2704: peptide 200 µM
HLA-B*2705 = biological target: T2, HLA-B*2705 (Homo sapiens, UniProt P01889, D138H/D201E/E176V/E204Q/G107R/H137Y/K202T/N104T/N87E/Q56L/Q94K/R106L/R155S/R180L/S101D/S121N/S48T/Y140D/Y33H/Y91C); assay: HLA/peptide complex stability assay, RMA-S cells transfected with HLA-B*2705; conditions: for fluorescence index, B*2705: peptide 200 µM
T2 construct: expressed in transfected cells; host or cells: RMA-S (TAP-deficient murine cell line)

HLA-B*2701 = biological target: T3, HLA-B*2701 (Homo sapiens, UniProt P01889, D138H/D201E/D98Y/E176V/E204Q/G107R/H137Y/K202T/L105A/N104T/N87E/Q56L/Q94K/R106L/R155S/R180L/S101N/S121N/S48T/Y140D/Y33H/Y91C); assay: HLA/peptide complex stability assay, RMA-S cells transfected with HLA-B*2701; conditions: for fluorescence index, B*2701: peptide 200 µM
T3 construct: expressed in transfected cells; host or cells: RMA-S (TAP-deficient murine cell line)

HLA-B*2703 = biological target: T4, HLA-B*2703 (Homo sapiens, UniProt P01889, D138H/D201E/E176V/E204Q/G107R/H137Y/K202T/N104T/N87E/Q56L/Q94K/R106L/R155S/R180L/S101D/S121N/S48T/Y140D/Y33H/Y83H/Y91C); assay: HLA/peptide complex stability assay, RMA-S cells transfected with HLA-B*2703; conditions: for fluorescence index, B*2703: peptide 200 µM
T4 construct: expressed in transfected cells; host or cells: RMA-S (TAP-deficient murine cell line)

HLA-B*2709 = biological target: T5, HLA-B*2709 (Homo sapiens, UniProt P01889, D138H/D201E/E176V/E204Q/G107R/H137Y/K202T/N104T/N87E/Q56L/Q94K/R106L/R155S/R180L/S101D/S121N/S48T/Y140H/Y33H/Y91C); assay: HLA/peptide complex stability assay, RMA-S cells transfected with HLA-B*2709; conditions: for fluorescence index, B*2709: peptide 200 µM
T5 construct: expressed in transfected cells; host or cells: RMA-S (TAP-deficient murine cell line)

[1] = relative affinity (EC50 class), B*2706
[2] = relative affinity (EC50 class), B*2702
[3] = relative affinity (EC50 class), B*2704
[4] = relative affinity (EC50 class), B*2701
[5] = relative affinity (EC50 class), B*2703
[6] = relative affinity (EC50 class), B*2709
[7] = mean ± S.D. of three to five independent experiments, SD

Row | Sequence | EC50 (HLA-B*2706; [1]) [µM] | EC50 (HLA-B*2702; [2]) [µM] | EC50 (HLA-B*2704; [3]) [µM] | relative MHC class I affinity according to the EC50 value, in words (high, medium, low) (HLA-B*2705) | EC50 (HLA-B*2705; EC50, B*2705, SD) [µM] | EC50 (HLA-B*2701; read-out: EC50, B*2701) [µM] | EC50 (HLA-B*2701; [4]) [µM] | EC50 (HLA-B*2703; [5]) [µM] | EC50 (HLA-B*2709; EC50, B*2709, SD) [µM] | EC50 (HLA-B*2709; [6]) [µM] | EC50 (HLA-B*2702; EC50, B*2702, SD) [µM] | EC50 (HLA-B*2704; EC50, B*2704, SD) [µM] | EC50 (HLA-B*2703; EC50, B*2703, SD) [µM] | other results
1 | LRNEESEKMAK [P 198-208] | > 200 | > 200 | > 200 | low affinity | 98 ± 35 | > 200 | > 200 | > 200 | 86 ± 12 | 61 to 200 |  |  |  | EC50 (HLA-B*2706; EC50, B*2706): > 200 µM; EC50 (HLA-B*2702; read-out: EC50, B*2702): > 200 µM; EC50 (HLA-B*2704; read-out: EC50, B*2704): > 200 µM; EC50 (HLA-B*2705; relative affinity (EC50 class), B*2705): 61 to 200 µM; EC50 (HLA-B*2703; EC50, B*2703): > 200 µM
2 | RRANNVLKNEM [NP 184-194] |  | 20 to 60 |  | high | 20 ± 8 |  | 20 to 60 | 20 to 60 | 7 ± 1 |  | 43 ± 27 | 19 ± 10 | 60 ± 29 | EC50 (HLA-B*2706; EC50, B*2706, SD): 2 ± 1 µM; EC50 (HLA-B*2701; EC50, B*2701, SD): 39 ± 9 µM
3 | RRANNVLKNEA [A11-NP 184-194, monosubstituted Ala analog of HRSV NP 184-194, […]] |  |  |  |  |  |  |  |  |  |  |  |  |  | fluorescence index, B*2706 (HLA-B*2706; [7]): 2.7±0.2; fluorescence index, B*2702 (HLA-B*2702; [7]): 1.7±0.1; fluorescence index, B*2704 (HLA-B*2704; [7]): 2.0±0.2; fluorescence index, B*2705 (HLA-B*2705; [7]): 2.1±0.1; fluorescence index, B*2701 (HLA-B*2701; [7]): 1.1±0.1; fluorescence index, B*2703 (HLA-B*2703; [7]): 1.7±0.2; fluorescence index, B*2709 (HLA-B*2709; [7]): 1.8±0.1
4 | RRAAAAAAAI [RRA7I] |  |  |  |  |  |  |  |  | 2 ± 1 |  | 28 ± 16 |  | 7 ± 5 | EC50 (HLA-B*2706; SD): 2 ± 1 µM; EC50 (HLA-B*2702; read-out: relative affinity (EC50 class), B*2702): 20 to 60 µM; EC50 (HLA-B*2704; SD): 7 ± 2 µM; EC50 (HLA-B*2705; SD): 4 ± 3 µM; EC50 (HLA-B*2701; SD): 7 ± 2 µM
5 | ARYKGLLPKDI [A1-NP 195-205, monosubstituted Ala analog of HRSV NP 195-205, […]] |  |  |  |  |  |  |  |  |  |  |  |  |  | fluorescence index, B*2706 (HLA-B*2706; [7]): 2.7±0.3; fluorescence index, B*2702 (HLA-B*2702; [7]): 1.8±0.1; fluorescence index, B*2704 (HLA-B*2704; [7]): 2.2±0.3; fluorescence index, B*2705 (HLA-B*2705; [7]): 2.4±0.3; fluorescence index, B*2701 (HLA-B*2701; [7]): 1.9±0.1; fluorescence index, B*2703 (HLA-B*2703; [7]): 2.1±0.2; fluorescence index, B*2709 (HLA-B*2709; [7]): 1.8±0.2
6 | RRYPDAVYL [MV F 438-466, reference compound] |  |  |  |  |  |  |  |  |  |  |  |  |  | EC50 (HLA-B*2706; Table 2, peptide concentration at 50% of maximum fluorescence, range 0.01–200 µM, transfected RMA-S cells, flow cytometry, mean ± S.D. of three to five independent experiments, - = no statistical difference in fluorescence index to negative control, SD, read-out: EC50, B*2706): 2 ± 1 µM; EC50 (HLA-B*2702; Table 2, peptide concentration at 50% of maximum fluorescence, range 0.01–200 µM, transfected RMA-S cells, flow cytometry, mean ± S.D. of three to five independent experiments, - = no statistical difference in fluorescence index to negative control, SD, read-out: EC50, B*2702): 11 ± 4 µM; EC50 (HLA-B*2704; Table 2, peptide concentration at 50% of maximum fluorescence, range 0.01–200 µM, transfected RMA-S cells, flow cytometry, mean ± S.D. of three to five independent experiments, - = no statistical difference in fluorescence index to negative control, SD, read-out: EC50, B*2704): 18 ± 4 µM; EC50 (HLA-B*2705; Table 2, peptide concentration at 50% of maximum fluorescence, range 0.01–200 µM, transfected RMA-S cells, flow cytometry, mean ± S.D. of three to five independent experiments, - = no statistical difference in fluorescence index to negative control, SD, read-out: EC50, B*2705): 3 ± 2 µM; EC50 (HLA-B*2701; Table 2, peptide concentration at 50% of maximum fluorescence, range 0.01–200 µM, transfected RMA-S cells, flow cytometry, mean ± S.D. of three to five independent experiments, - = no statistical difference in fluorescence index to negative control, SD, read-out: EC50, B*2701): 5 ± 2 µM; EC50 (HLA-B*2703; Table 2, peptide concentration at 50% of maximum fluorescence, range 0.01–200 µM, transfected RMA-S cells, flow cytometry, mean ± S.D. of three to five independent experiments, - = no statistical difference in fluorescence index to negative control, SD, read-out: EC50, B*2703): 4 ± 3 µM; EC50 (HLA-B*2709; Table 2, peptide concentration at 50% of maximum fluorescence, range 0.01–200 µM, transfected RMA-S cells, flow cytometry, mean ± S.D. of three to five independent experiments, - = no statistical difference in fluorescence index to negative control, SD, read-out: EC50, B*2709): 4 ± 1 µM
7 | HRFIYLINH [NS2 37-45] | 20 to 60 | 61 to 200 | 61 to 200 | high | 7 ± 4 | > 200 | > 200 |  | 33 ± 9 | 20 to 60 | 77 ± 14 | 78 ± 33 | 10 ± 5 | EC50 (HLA-B*2706; EC50, B*2706, SD): 45 ± 19 µM
8 | KRLPADVLKK [M2 150-159] | > 200 | 61 to 200 | 61 to 200 | high | 18 ± 3 | > 200 | > 200 | 61 to 200 | 22 ± 9 | 20 to 60 | 136 ± 63 | 73 ± 9 | 78 ± 10 | EC50 (HLA-B*2706; EC50, B*2706): > 200 µM
